Results as given in PubChem BioAssay (NCI).
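Five concentrations, 48 hours, 96-well plates. The concentration for 50% growth inhibition is given as GI50. TGI: concentration producing complete growth inhibition.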

Assays:
Experiment in all cases: DTP human tumour cell line panel, 48 h
IGROV1 ovarian = system: IGROV1 ovarian
UO-31 renal = system: UO-31 renal
M14 melanoma = system: M14 melanoma
MDA-MB-231 breast = system: MDA-MB-231 breast
HS 578T breast = system: HS 578T breast
OVCAR-3 ovarian = system: OVCAR-3 ovarian
LOX IMVI melanoma = system: LOX IMVI melanoma
SK-OV-3 ovarian = system: SK-OV-3 ovarian
HCT-116 colon = system: HCT-116 colon
ACHN renal = system: ACHN renal
786-0 renal = system: 786-0 renal
RPMI-8226 leukemia = system: RPMI-8226 leukemia
OVCAR-4 ovarian = system: OVCAR-4 ovarian
SK-MEL-5 melanoma = system: SK-MEL-5 melanoma
RXF 393 renal = system: RXF 393 renal
SW-620 colon = system: SW-620 colon
UACC-257 melanoma = system: UACC-257 melanoma
SK-MEL-2 melanoma = system: SK-MEL-2 melanoma
SF-268 CNS = system: SF-268 CNS
OVCAR-5 ovarian = system: OVCAR-5 ovarian
MOLT-4 leukemia = system: MOLT-4 leukemia
EKVX NSCLC = system: EKVX NSCLC
A498 renal = system: A498 renal
SN12C renal = system: SN12C renal
SF-295 CNS = system: SF-295 CNS

`CC1(C)CC[C@]23CC[C@]4(C)[C@H](CC[C@@H]5[C@@]6(C)CC[C@H](N)C(C)(C)[C@@H]6CC[C@]54C)[C@H]2[C@H]1OC3=O` gave a GI50 (IGROV1 ovarian) of 1.68 µM, a TGI (IGROV1 ovarian) of 3.1 µM and a GI50 (UO-31 renal) of 1.51 µM. The TGI (UO-31 renal) was 2.87 µM, the GI50 (M14 melanoma) was 1.81 µM and the TGI (M14 melanoma) was 3.34 µM. For the same molecule, the GI50 (MDA-MB-231 breast) was 1.69 µM, the TGI (MDA-MB-231 breast) was 3.09 µM and the GI50 (HS 578T breast) was 1.89 µM. It also gave a TGI (HS 578T breast) of 4.09 µM, a GI50 (OVCAR-3 ovarian) of 1.66 µM and a TGI (OVCAR-3 ovarian) of 3.1 µM. The GI50 (LOX IMVI melanoma) was 1.68 µM, the TGI (LOX IMVI melanoma) was 3.05 µM and the GI50 (SK-OV-3 ovarian) was 12.1 µM. The TGI (SK-OV-3 ovarian) was 37.3 µM, the GI50 (HCT-116 colon) was 1.6 µM and the TGI (HCT-116 colon) was 3.05 µM. It also gave a GI50 (ACHN renal) of 1.68 µM, a TGI (ACHN renal) of 3.05 µM and a GI50 (786-0 renal) of 1.45 µM. For the same molecule, the TGI (786-0 renal) was 2.92 µM, the GI50 (RPMI-8226 leukemia) was 2.1 µM and the TGI (RPMI-8226 leukemia) was 5.26 µM. It also gave a GI50 (OVCAR-4 ovarian) of 1.94 µM, a TGI (OVCAR-4 ovarian) of 3.86 µM and a GI50 (SK-MEL-5 melanoma) of 1.75 µM. For the same molecule, the TGI (SK-MEL-5 melanoma) was 3.14 µM, the GI50 (RXF 393 renal) was 1.63 µM and the TGI (RXF 393 renal) was 3.11 µM. The GI50 (SW-620 colon) was 1.44 µM, the TGI (SW-620 colon) was 2.86 µM and the GI50 (UACC-257 melanoma) was 1.8 µM. It also gave a TGI (UACC-257 melanoma) of 3.43 µM, a GI50 (SK-MEL-2 melanoma) of 3.02 µM and a TGI (SK-MEL-2 melanoma) of 9.41 µM. The GI50 (SF-268 CNS) was 1.69 µM, the TGI (SF-268 CNS) was 3.36 µM and the GI50 (OVCAR-5 ovarian) was 1.65 µM. It also gave a TGI (OVCAR-5 ovarian) of 3.02 µM, a GI50 (MOLT-4 leukemia) of 1.85 µM and a TGI (MOLT-4 leukemia) of 4.38 µM. It also gave a GI50 (EKVX NSCLC) of 1.7 µM, a TGI (EKVX NSCLC) of 3.16 µM and a GI50 (A498 renal) of 1.48 µM. For the same molecule, the TGI (A498 renal) was 3.44 µM, the GI50 (SN12C renal) was 1.64 µM and the TGI (SN12C renal) was 3.05 µM. The GI50 (SF-295 CNS) was 1.76 µM.
